According to US11753446B2, “Beta-hairpin peptidomimetics” (POLYPHOR AG, priority 2014, dated 2023):
Where a SMILES comes first, the peptide text is derived from it.

Legend:
[1] = system: Acinetobacter baumannii DSM 30008; assay type: cell-based; settings: DSM 30008
How it was run: (§1)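 Peptide MICs were determined by NCCLS broth microdilution in cation-adjusted Mueller-Hinton II broth. Inoculum was about 10^6 CFU/mL, matched to 0.5 McFarland, with peptides in two-fold serial dilutions. The broth contained Polysorbate 80 at 0.002% final concentration.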

[2] = system: Escherichia coli ATCC 25922; assay type: cell-based; settings: ATCC 25922
How it was run: as §1

[3] = system: Klebsiella pneumoniae ATCC 13883; assay type: cell-based; settings: ATCC 13883
How it was run: as §1

[4] = system: human red blood cells (hRBC); assay: Hemolysis: hemolytic activity at 100 μg/mL, 1 h at 37° C.; settings: red cells of human, 1 h, 100
How it was run: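 Peptides at 100 μg/mL incubated with washed 20% (v/v) human erythrocytes (~0.9×10^9 cells/mL) for 1 h at 37 °C with shaking. Released hemoglobin read at OD 540 nm in supernatant; 0% and 100% lysis from PBS/0.001% acetic acid and 2.5% Triton X-100.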

Structure (SMILES)	Acinetobacter baumannii DSM 30008 MIC [1] [µg/mL]	Escherichia coli ATCC 25922 MIC [2] [µg/mL]	Klebsiella pneumoniae ATCC 13883 MIC [3] [µg/mL]	Hemolysis at 100 μg/mL [4] [%]
CC(C)C[C@@H]1NC(=O)[C@H](CCCNC(=N)N)NC(=O)[C@@H](CCN)NC(=O)[C@H](C(C)C)NC(=O)[C@H](CO)NC(=O)[C@H](C(C)C)NC(=O)[C@@H]2CSSC[C@H](NC(=O)[C@H](Cc3ccc(O)cc3)NC(=O)[C@H](CO)NC1=O)C(=O)N[C@@H](CCCN)C(=O)N[C@H](CCN)C(=O)N[C@@H](CCN)C(=O)N[C@@H](Cc1ccccc1)C(=O)N2 [Example 39, cyclo(-Leu-Ser-Tyr-Cys-Orn-^DDab-Dab-Phe-Cys-Val-Ser-Val-^DDab-Arg-)] (HELM PEPTIDE1{C.[Orn].[NCC[C@@H](N[*:1])C(=O)[*:2]].[Dab].F.C.V.S.V.[NCC[C@@H](N[*:1])C(=O)[*:2]].R.L.S.Y}$PEPTIDE1,PEPTIDE1,1:R3-6:R3|PEPTIDE1,PEPTIDE1,1:R1-14:R2$$$V2.0)	0.5	0.5	0.25	4.5
CC(C)C[C@@H]1NC(=O)[C@H](CCCNC(=N)N)NC(=O)[C@@H](CCN)NC(=O)[C@H](Cc2ccc(O)cc2)NC(=O)[C@@H]2CSSC[C@H](NC1=O)C(=O)N[C@@H](Cc1ccc(O)cc1)C(=O)N[C@@H](C(C)C)C(=O)N[C@@H](CCCN)C(=O)N[C@H](CCN)C(=O)N[C@@H](CCN)C(=O)N[C@@H](Cc1c[nH]c3ccccc13)C(=O)N[C@@H](Cc1ccc(O)cc1)C(=O)N[C@@H](Cc1ccc(O)cc1)C(=O)N2 [Example 22, cyclo(-Leu-Cys-Tyr-Val-Orn-^DDab-Dab-Trp-Tyr-Tyr-Cys-Tyr-^DDab-Arg-)] (HELM PEPTIDE1{C.Y.V.[Orn].[NCC[C@@H](N[*:1])C(=O)[*:2]].[Dab].W.Y.Y.C.Y.[NCC[C@@H](N[*:1])C(=O)[*:2]].R.L}$PEPTIDE1,PEPTIDE1,1:R3-10:R3|PEPTIDE1,PEPTIDE1,1:R1-14:R2$$$V2.0)	0.5	0.5	1	6
